Experimental findings from article PMC9369794 (Molecules, 2022) are described below.

Series [1] in a line: FRAP assay for the antioxidant capacity. The arrangement: key to FRAP: slope of concentration-absorbance line divided by Trolox slope. The conditions noted are these: for FRAP: stock in THF, acetate buffer pH 3.0, 37 °C, 15 min, ratio of slopes to trolox (melatonin in EtOH). The method, boiled down:
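Fe^3+→Fe^2+ reduction by antioxidants (THF stocks) in FRAP reagent (FeCl3/TPTZ, 300 mM acetate buffer pH 3.0), 15 min at 37 °C in the dark. Absorbance at 600 nm measured in triplicate at 0-17.5 μM final. FRAP value = slope of absorbance-concentration line divided by Trolox slope.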

Series [2] in a line: TEAC assay using ABTS radical. The conditions noted are these: 6 min, ratio of slopes to trolox (melatonin dissolved in EtOH); for TEAC from DMSO: stock in DMSO diluted with PBS pH 7.4, 37 °C; for TEAC from THF: stock in THF diluted with PBS pH 7.4, 37 °C.
Series [3] in a line: Study of aggregation by UV-Vis spectrophotometry. The class given is physicochemical. The conditions noted are these: for change of UV spectrum with increasing ratio of PBS: starting from THF solutions. The method, boiled down: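 Conjugates dissolved in THF and diluted with THF or THF-PBS mixtures (1:1, 1:3) at identical carotenoid concentration; separately, 2.5∙10−4 M DMSO stocks added to PBS to final 0.3125–5 μM carotenoid. UV-Vis spectra recorded to follow band shifts and fine-structure changes; DMSO-PBS solutions also examined by DLS.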

`CC1=C(/C=C/C(C)=C/C=C/C(C)=C/C=C/C=C(C)/C=C/C=C(\C)COC(=O)CCC(=O)O)C(C)(C)CCC1` [Compound 6, 8′-Apo-β-carotenol succinate]: in series [1] (acetate buffer pH 3.0), the “FRAP value relative to the succinates of the other carotenoids” value was 1.5–2 times. The FRAP in series [1] is 0.276. For the same compound, in series [2], the “TEAC from DMSO” value was found to be 1.19 and the “TEAC from THF” value is 1.913. For the same compound, the “change of UV spectrum with increasing ratio of PBS” value in series [3] is recorded as “did not cause much change”.
Consider `CC1=C(/C=C/C(C)=C/C=C/C(C)=C/C=C/C=C(C)/C=C/C=C(C)/C=C/C2=C(C)C[C@@H](OC(=O)CCC(=O)O)CC2(C)C)C(C)(C)C[C@H](OC(=O)CCC(=O)O)C1` [Compound 7, Zeaxanthin bissuccinate], for which, in series [1], the FRAP stood at 0.155. For the same compound, in series [2], the “TEAC from DMSO” value is 0.86 and the “TEAC from THF” value was determined as 2.090. Moreover, the “change of UV spectrum with increasing ratio of PBS” value in series [3] is reported as “did not cause much change”.
For the compound `CC1=C(/C=C/C(C)=C/C=C/C(C)=C/C=C/C=C(C)/C=C/C=C(C)/C=C/C2=C(C)C[C@@H](OC(=O)CCC(=O)O)CC2(C)C)C(C)(C)CCC1` [Compound 8, β-Cryptoxanthin succinate], the FRAP in series [1] is given as 0.181. Also, in series [2], the “TEAC from THF” value is recorded as 1.827. In addition, the “type of aggregates formed” value in series [3] (from THF:aqueous solutions) is on record as “J-type (head-to-tail) aggregates”. Further, the “change of UV spectrum with increasing ratio of PBS” value in series [3] was “bathochromic shift”.
